Measurements from patent US6737383B1, “Herbicidal oxadiazolidines” (priority 1999, dated 2004).

Experiments:
surinam grass = test: Test B pre/postemergence surinam grass; format: in vivo, Brachiaria decumbens
Outline: (§1)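 Herbicidal effect was estimated by eye on a ten-point control scale after plants spent twelve to sixteen days in a greenhouse following soil or foliar treatment. Foliar sprays targeted plants at one to four leaves; all doses were formulated in a non-phytotoxic solvent with surfactant.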

cocklebur = test: Test B pre/postemergence cocklebur; format: in vivo, Xanthium strumarium
Outline: as §1

corn = test: Test B pre/postemergence corn; format: in vivo, Zea mays
Outline: as §1

crabgrass = test: Test B pre/postemergence crabgrass; format: in vivo, Digitaria sanguinalis
Outline: as §1

giant foxtail = test: Test B pre/postemergence giant foxtail; format: in vivo, Setaria faberii
Outline: as §1

pigweed = test: Test B pre/postemergence pigweed; format: in vivo, Amaranthus retroflexus; conditions: for Plant response rating, Redroot pigweed: scale of 0 to 10 where 0 is no effect and 10 is complete control
Outline: as §1

rape = test: Test B pre/postemergence rape; format: in vivo, Brassica napus; conditions: for Plant response rating, Rape: scale of 0 to 10 where 0 is no effect and 10 is complete control
Outline: as §1

soybean = test: Test B pre/postemergence soybean; format: in vivo, Glycine max; conditions: for Plant response rating, Soybean: scale of 0 to 10 where 0 is no effect and 10 is complete control
Outline: as §1

sugar beet = test: Test B pre/postemergence sugar beet; format: in vivo, Beta vulgaris; conditions: for Plant response rating, Sugarbeets: scale of 0 to 10 where 0 is no effect and 10 is complete control
Outline: as §1

velvetleaf = test: Test B pre/postemergence velvetleaf; format: in vivo, Abutilon theophrasti; conditions: for Plant response rating, Velvetleaf: scale of 0 to 10 where 0 is no effect and 10 is complete control
Outline: as §1

wheat = test: Test B pre/postemergence wheat; format: in vivo, Triticum aestivum; conditions: for Plant response rating, Wheat: scale of 0 to 10 where 0 is no effect and 10 is complete control
Outline: as §1

wild oat = test: Test B pre/postemergence wild oat; format: in vivo, Avena fatua; conditions: for Plant response rating, Wild oats: scale of 0 to 10 where 0 is no effect and 10 is complete control
Outline: as §1

purple nutsedge = test: Test B pre/postemergence purple nutsedge; format: in vivo, Cyperus rotundus; conditions: for Plant response rating, Nutsedge: scale of 0 to 10 where 0 is no effect and 10 is complete control
Outline: as §1

smallflower flatsedge = test: Test B flood test smallflower flatsedge; format: in vivo, Cyperus difformis
Outline: (§2)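 Each value is a visual injury score relative to controls, with 10 meaning complete control and 0 no effect. Evaluation took place twelve to sixteen days after the 2-leaf-stage plants were treated and kept in the greenhouse.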

duck salad = test: Test B flood test duck salad; format: in vivo, Heteranthera limosa
Outline: as §2

bamyardgrass = test: Test B flood test barnyardgrass; format: in vivo, Echinochloa crus-galli
Outline: as §2

[1] = Postemergence, Rate 500 g/ha, scale of 0 to 10 where 0 is no effect and 10 is complete control
[2] = Preemergence, Rate 62 g/ha, scale of 0 to 10 where 0 is no effect and 10 is complete control
[3] = Preemergence, Rate 125 g/ha, scale of 0 to 10 where 0 is no effect and 10 is complete control
[4] = Preemergence, Rate 250 g/ha, scale 0 to 10, 0 is no effect, 10 is complete control
[5] = Preemergence, Rate 500 g/ha, scale 0 to 10, 0 is no effect, 10 is complete control
[6] = Rate 62 g/ha, Postemergence, scale 0 to 10 (0 no effect, 10 complete control)
[7] = Rate 125 g/ha, Postemergence, scale 0 to 10, 0 is no effect, 10 is complete control
[8] = Postemergence, Rate 250 g/ha, scale 0 to 10
[9] = Rate 62 g/ha, flood test species, Pre-emergence, visual evaluation after twelve to sixteen days
[10] = Rate 125 g/ha, under heading Pre-emergence, flood test species, visual evaluation after twelve to sixteen days
[11] = Rate 250 g/ha, Pre-emergence (flood test species), scale 0 to 10, 0 is no effect, 10 is complete control
[12] = Rate 500 g/ha, Pre-emergence, flood test species, scale 0 to 10 (0 no effect, 10 complete control)

CCOC(=O)CC(C(=O)OCC)n1c(=O)on(C(=O)N(c2ccc(F)cc2F)C(C)C)c1=O (stereo not shown) [Compound 465]
B. signalgrass plant response rating (surinam grass; Postemergence, Rate 250 g/ha, scale 0 to 10, 0 no effect, 10 complete control): 0 | B. signalgrass plant response rating (surinam grass; [1]): 0 | Plant response rating, B. signalgrass (surinam grass; [2]): 0 | Plant response rating, B. signalgrass (surinam grass; [3]): 2 | B. signalgrass plant response rating (surinam grass; [4]): 3 | B. signalgrass plant response rating (surinam grass; [5]): 5 | B. signalgrass plant response rating (surinam grass; [6]): 0 | B. signalgrass plant response rating (surinam grass; [7]): 0 | Cocklebur plant response rating (cocklebur; [8]): 0 | Cocklebur plant response rating (cocklebur; [1]): 0 | Plant response rating, Cocklebur (cocklebur; [2]): 0 | Plant response rating, Cocklebur (cocklebur; [3]): 0 | Cocklebur plant response rating (cocklebur; [4]): 0 | Cocklebur plant response rating (cocklebur; [5]): 0 | Cocklebur plant response rating (cocklebur; [6]): 0 | Cocklebur plant response rating (cocklebur; [7]): 0 | Corn plant response rating (corn; [8]): 0 | Corn plant response rating (corn; [1]): 2 | Plant response rating, Corn (corn; [2]): 0 | Plant response rating, Corn (corn; [3]): 0 | Corn plant response rating (corn; [4]): 0 | Corn plant response rating (corn; [5]): 2 | Corn plant response rating (corn; [6]): 0 | Corn plant response rating (corn; [7]): 0 | Crabgrass plant response rating (crabgrass; [8]): 5 | Crabgrass plant response rating (crabgrass; [1]): 8 | Plant response rating, Crabgrass (crabgrass; [2]): 2 | Crabgrass plant response rating (crabgrass; [4]): 4 | Crabgrass plant response rating (crabgrass; [5]): 10 | Crabgrass plant response rating (crabgrass; [6]): 1 | Crabgrass plant response rating (crabgrass; [7]): 1 | Giant foxtail plant response rating (giant foxtail; [8]): 5 | Giant foxtail plant response rating (giant foxtail; [1]): 9 | Plant response rating, Giant foxtail (giant foxtail; [2]): 7 | Plant response rating, Giant foxtail (giant foxtail; [3]): 10 | Giant foxtail plant response rating (giant foxtail; [4]): 10 | Giant foxtail plant response rating (giant foxtail; [5]): 10 | Giant foxtail plant response rating (giant foxtail; [6]): 2 | Giant foxtail plant response rating (giant foxtail; [7]): 5 | Redroot pigweed plant response rating (pigweed; [8]): 0 | Plant response rating, Redroot pigweed (pigweed; Preemergence, Rate 62 g/ha): 3 | Plant response rating, Redroot pigweed (pigweed; Preemergence, Rate 125 g/ha): 9 | Redroot pigweed plant response rating (pigweed; [4]): 9 | Redroot pigweed plant response rating (pigweed; [5]): 10 | Redroot pigweed plant response rating (pigweed; [6]): 0 | Redroot pigweed plant response rating (pigweed; [7]): 0 | Rape plant response rating (rape; [8]): 0 | Plant response rating, Rape (rape; Preemergence, Rate 62 g/ha): 0 | Plant response rating, Rape (rape; Preemergence, Rate 125 g/ha): 2 | Rape plant response rating (rape; [4]): 2 | Rape plant response rating (rape; [5]): 5 | Rape plant response rating (rape; [6]): 0 | Rape plant response rating (rape; [7]): 0 | Soybean plant response rating (soybean; [8]): 1 | Plant response rating, Soybean (soybean; Preemergence, Rate 62 g/ha): 0 | Plant response rating, Soybean (soybean; Preemergence, Rate 125 g/ha): 0 | Soybean plant response rating (soybean; [4]): 7 | Soybean plant response rating (soybean; [6]): 1 | Soybean plant response rating (soybean; [7]): 1 | Sugarbeets plant response rating (sugar beet; [8]): 0 | Plant response rating, Sugarbeets (sugar beet; Preemergence, Rate 62 g/ha): 0 | Plant response rating, Sugarbeets (sugar beet; Preemergence, Rate 125 g/ha): 2 | Sugarbeets plant response rating (sugar beet; [4]): 3 | Sugarbeets plant response rating (sugar beet; [5]): 5 | Sugarbeets plant response rating (sugar beet; [6]): 0 | Sugarbeets plant response rating (sugar beet; [7]): 0 | Velvetleaf plant response rating (velvetleaf; [8]): 3 | Plant response rating, Velvetleaf (velvetleaf; Preemergence, Rate 62 g/ha): 0 | Plant response rating, Velvetleaf (velvetleaf; Preemergence, Rate 125 g/ha): 3 | Velvetleaf plant response rating (velvetleaf; [4]): 7 | Velvetleaf plant response rating (velvetleaf; [5]): 8 | Velvetleaf plant response rating (velvetleaf; [6]): 0 | Velvetleaf plant response rating (velvetleaf; [7]): 0 | Wheat plant response rating (wheat; [8]): 0 | Plant response rating, Wheat (wheat; Preemergence, Rate 62 g/ha): 0 | Plant response rating, Wheat (wheat; Preemergence, Rate 125 g/ha): 0 | Wheat plant response rating (wheat; [4]): 0 | Wheat plant response rating (wheat; [5]): 0 | Wheat plant response rating (wheat; [6]): 0 | Wheat plant response rating (wheat; [7]): 0 | Wild oats plant response rating (wild oat; [8]): 0 | Plant response rating, Wild oats (wild oat; Preemergence, Rate 62 g/ha): 0 | Plant response rating, Wild oats (wild oat; Preemergence, Rate 125 g/ha): 0 | Wild oats plant response rating (wild oat; [4]): 2 | Wild oats plant response rating (wild oat; [5]): 3 | Wild oats plant response rating (wild oat; [6]): 0 | Wild oats plant response rating (wild oat; [7]): 0 | Nutsedge plant response rating (purple nutsedge; [8]): 0 | Plant response rating, Nutsedge (purple nutsedge; Preemergence, Rate 62 g/ha): 0 | Plant response rating, Nutsedge (purple nutsedge; Preemergence, Rate 125 g/ha): 0 | Nutsedge plant response rating (purple nutsedge; [4]): 0 | Nutsedge plant response rating (purple nutsedge; [5]): 0 | Nutsedge plant response rating (purple nutsedge; [6]): 0 | Nutsedge plant response rating (purple nutsedge; [7]): 0 | Plant response rating, S. Flatsedge (0 to 10 scale, 0 is no effect, 10 is complete control) (smallflower flatsedge; [9]): 0 | S. Flatsedge plant response rating (0 to 10 scale, 0 is no effect, 10 is complete control) (smallflower flatsedge; [10]): 0 | S. Flatsedge plant response rating (smallflower flatsedge; [11]): 0 | S. Flatsedge plant response rating (smallflower flatsedge; [12]): 0 | Plant response rating, Ducksalad (0 to 10 scale, 0 is no effect, 10 is complete control) (duck salad; [9]): 0 | Ducksalad plant response rating (0 to 10 scale, 0 is no effect, 10 is complete control) (duck salad; [10]): 0 | Ducksalad plant response rating (duck salad; [11]): 0 | Ducksalad plant response rating (duck salad; [12]): 0 | Plant response rating, Barnyardgrass (0 to 10 scale, 0 is no effect, 10 is complete control) (bamyardgrass; [9]): 0 | Barnyardgrass plant response rating (0 to 10 scale, 0 is no effect, 10 is complete control) (bamyardgrass; [10]): 0 | Barnyardgrass plant response rating (bamyardgrass; [11]): 0 | Barnyardgrass plant response rating (bamyardgrass; [12]): 0
